# PubChem BioAssay AID330 (DTP/NCI, 2004)
# Values joined by “and” are separate entries in the source; they are usually repeats but may differ in a detail not shown here. Equal values may be shown once. Inconclusive results and toxic doses are left out.
# Test system: P388 leukemia ip, CD2F1 mice, survival T/C
# Test: NCI In Vivo Anticancer Drug Screen. Data for tumor model P388 Leukemia (intraperitoneal) in CD2F1 (CDF1) mice
# Settings: endpoint: median survival time, higher = longer survival
# How it was run: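 Mice carrying the transplanted tumor received test compound or vehicle. Survival was recorded in each group, and the value is the treated-group measurement divided by that of the vehicle-treated control group.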
# [1] = dose: 100.0 mg/kg/injection, schedule: Q04DX002 (ip), vehicle: saline with Tween-80
# [2] = dose: 25.0 mg/kg/injection, schedule: Q01DX005 (ip), vehicle: saline with Tween-80
# [3] = dose: 50.0 mg/kg/injection, schedule: Q01DX005 (ip), vehicle: saline with Tween-80
# [4] = dose: 12.5 mg/kg/injection, schedule: Q01DX009 (ip), vehicle: saline with Tween-80
# [5] = dose: 25.0 mg/kg/injection, schedule: Q01DX009 (ip), vehicle: saline with Tween-80
# [6] = dose: 50.0 mg/kg/injection, schedule: Q01DX009 (ip), vehicle: saline with Tween-80
# [7] = dose: 100.0 mg/kg/injection, schedule: Q01DX009 (ip), vehicle: saline with Tween-80
# [8] = dose: 100.0 mg/kg/injection, schedule: Q01DX009 (ip), vehicle: saline
structure (smiles),measurement,setting,value
CC1=NN(C(=O)CC(=O)Nc2ccc(C(=O)O)cc2)C(=O)C1N=Nc1ccc(I)cc1 (stereo not drawn),T/C,[1],96 % of control
same,T/C,"dose: 200.0 mg/kg/injection, schedule: Q04DX002 (ip), vehicle: saline with Tween-80",98 % of control
same,T/C,"dose: 400.0 mg/kg/injection, schedule: Q04DX002 (ip), vehicle: saline with Tween-80",120 % of control
COc1cccc(-c2nnc(-c3nc[nH]c3C)o2)c1,T/C,"dose: 100.0 mg/kg/injection, schedule: Q04DX002 (ip), vehicle: Klucel (hydroxypropylcellulose) (HPC)",100 % of control
same,T/C,"dose: 200.0 mg/kg/injection, schedule: Q04DX002 (ip), vehicle: Klucel (hydroxypropylcellulose) (HPC)",95 % of control
N#Cc1c(N2CCOCC2)cc(-c2ccccc2)oc1=O,T/C,"dose: 25.0 mg/kg/injection, schedule: Q04DX002 (ip), vehicle: saline with Tween-80",101 % of control
same,T/C,"dose: 50.0 mg/kg/injection, schedule: Q04DX002 (ip), vehicle: saline with Tween-80",97 % of control
same,T/C,[1],100 % of control
Nc1cc2nc3ccccc3nc2cc1N,T/C,[2],91 % of control
same,T/C,[3],90 % of control
CN=C(c1ccc(NC(=O)c2ccc(C(=O)Nc3ccc(C(=NC)N4CCOCC4)cc3)cc2)cc1)N1CCOCC1,T/C,"dose: 6.25 mg/kg/injection, schedule: Q01DX005 (ip), vehicle: Klucel (hydroxypropylcellulose) (HPC)",105 % of control
same,T/C,"dose: 12.5 mg/kg/injection, schedule: Q01DX005 (ip), vehicle: Klucel (hydroxypropylcellulose) (HPC)",101 % of control
NS(=O)(=O)c1ccc(NC(=O)c2cccnc2Nc2cccc(Cl)c2)cc1,T/C,"dose: 60.0 mg/kg/injection, schedule: Q01DX005 (ip), vehicle: saline with Tween-80",103 % of control
same,T/C,"dose: 120.0 mg/kg/injection, schedule: Q01DX005 (ip), vehicle: saline with Tween-80",102 % of control
same,T/C,"dose: 240.0 mg/kg/injection, schedule: Q01DX005 (ip), vehicle: saline with Tween-80",101 % of control
CC(=O)NC1=C(N2CC2C)C(=O)C(NC(C)=O)=C(N2CC2C)C1=O (stereo not drawn),T/C,"dose: 1.78 mg/kg/injection, schedule: Q01DX009 (ip), vehicle: saline",122 % of control
same,T/C,"dose: 2.66 mg/kg/injection, schedule: Q01DX009 (ip), vehicle: saline",160 % of control
same,T/C,"dose: 4.0 mg/kg/injection, schedule: Q01DX009 (ip), vehicle: saline",163 % of control
same,T/C,"dose: 6.0 mg/kg/injection, schedule: Q01DX009 (ip), vehicle: saline",210 % of control
CC(CCOc1ccc2ccc(=O)oc2c1)C1=CC(=O)C(C)(C)O1 (stereo not drawn),T/C,[4],103 % of control
same,T/C,[5],90 % of control
same,T/C,[6],116 % of control
same,T/C,[7],116 % of control
Cc1cc2c(cc1C)-c1nn(-c3ccccc3)c(-c3ccc(Cl)cc3)c1CCO2,T/C,"dose: 12.5 mg/kg/injection, schedule: Q01DX005 (ip), vehicle: saline with Tween-80",92 % of control
same,T/C,[2],99 % of control
same,T/C,[3],93 % of control and 94 % of control
O=C(O)CS(=O)(=O)CCCCCS(=O)(=O)CC(=O)O,T/C,"dose: 50.0 mg/kg/injection, schedule: Q01DX009 (ip), vehicle: saline",106 % of control
same,T/C,[8],104 % of control
same,T/C,"dose: 200.0 mg/kg/injection, schedule: Q01DX009 (ip), vehicle: saline",105 % of control
O=C(C[n+]1ccsc1Br)c1ccccc1,T/C,[3],102 % of control
same,T/C,"dose: 100.0 mg/kg/injection, schedule: Q01DX005 (ip), vehicle: saline with Tween-80",119 % of control
Cn1c(=O)c2c(nc(/N=C/c3cccc([N+](=O)[O-])c3)n2C)n(C)c1=O,T/C,"dose: 100.0 mg/kg/injection, schedule: Q04DX003 (ip), vehicle: saline",100 % of control
same,T/C,"dose: 200.0 mg/kg/injection, schedule: Q04DX003 (ip), vehicle: saline",94 % of control
same,T/C,"dose: 400.0 mg/kg/injection, schedule: Q04DX003 (ip), vehicle: saline",86 % of control
C1CN(SSN2CCOCC2)CCO1,T/C,[4],113 % of control
same,T/C,[5],104 % of control
same,T/C,[6],100 % of control
same,T/C,[7],100 % of control
COc1cc(-c2ccc(N=Nc3c(O)ccc4ccccc34)c(OC)c2)ccc1N=Nc1ccc2c(S(=O)(=O)O)cc(S(=O)(=O)O)c(N)c2c1O,T/C,"dose: 66.0 mg/kg/injection, schedule: Q01DX009 (ip), vehicle: saline",102 % of control
same,T/C,[8],118 % of control
same,T/C,"dose: 150.0 mg/kg/injection, schedule: Q01DX009 (ip), vehicle: saline",114 % of control
O=C(Nc1cccc(Cl)c1Cl)OCCCc1ccncc1,T/C,[6],100 % of control
same,T/C,[7],100 % of control
